According to the OligoGym collection:
Oligonucleotides are written 5' to 3', each unit as a sugar letter and its base; * is a phosphorothioate linkage, no mark a phosphodiester; rarer units and linkages stand in square brackets, end groups in braces. Plain capitals give the bases only. d = 2'-deoxy (DNA); r = 2'-OH (RNA)

biological target: MRFAP1; experiment: reporter assay of Huesken 2005; conditions: siRNA
Note: test concentration or dose not given here.

Row | Substance | normalised inhibition (eCFP-eYFP dual reporter) [%]
1 | sense rGrUrArGrUrCrArArGrCrUrArUrArArArUrGrUdTdT / antisense rArCrArUrUrUrArUrArGrCrUrUrGrArCrUrArCdAdT | 88.3
2 | sense rGrUrCrCrCrUrGrUrGrArCrArCrUrGrArGrArCdTdT / antisense rGrUrCrUrCrArGrUrGrUrCrArCrArGrGrGrArCdCdC | 43
3 | sense rUrUrGrUrUrCrGrUrCrUrGrUrArCrArArGrUrUdTdT / antisense rArArCrUrUrGrUrArCrArGrArCrGrArArCrArAdGdA | 55.5
4 | sense rCrUrCrArArCrCrArCrCrUrGrCrArGrGrGrCrGdTdT / antisense rCrGrCrCrCrUrGrCrArGrGrUrGrGrUrUrGrArGdAdG | 43.2
5 | sense rCrUrGrCrUrGrCrCrCrGrUrCrArUrCrCrArCrGdTdT / antisense rCrGrUrGrGrArUrGrArCrGrGrGrCrArGrCrArGdAdA | 39.5
6 | sense rCrArArGrUrUrGrGrUrArUrCrCrCrCrArUrArUdTdT / antisense rArUrArUrGrGrGrGrArUrArCrCrArArCrUrUrGdTdA | 62.5
7 | sense rGrArGrGrArCrArUrCrGrCrGrUrCrGrCrUrGrAdTdT / antisense rUrCrArGrCrGrArCrGrCrGrArUrGrUrCrCrUrCdGdC | 77.9
8 | sense rGrGrGrCrGrGrCrGrCrCrGrArGrCrCrCrCrGrCdTdT / antisense rGrCrGrGrGrGrCrUrCrGrGrCrGrCrCrGrCrCrCdGdC | 74.9
9 | sense rCrUrGrCrCrCrGrUrCrArUrCrCrArCrGrArGrAdTdT / antisense rUrCrUrCrGrUrGrGrArUrGrArCrGrGrGrCrArGdCdA | 70.8
10 | sense rUrGrUrUrCrUrCrArCrUrGrArCrArCrUrArCrGdTdT / antisense rCrGrUrArGrUrGrUrCrArGrUrGrArGrArArCrAdGdA | 68.9
11 | sense rGrUrGrUrGrArGrArCrCrArArArGrGrArGrGrAdTdT / antisense rUrCrCrUrCrCrUrUrUrGrGrUrCrUrCrArCrArCdAdG | 98
12 | sense rGrGrArGrUrUrGrGrArGrCrUrCrArCrCrGrCrCdTdT / antisense rGrGrCrGrGrUrGrArGrCrUrCrCrArArCrUrCrCdAdA | 50
13 | sense rCrArUrGrCrArGrCrArArUrGrGrCrArGrArArGdTdT / antisense rCrUrUrCrUrGrCrCrArUrUrGrCrUrGrCrArUrGdGdA | 79.1
14 | sense rUrUrUrGrGrGrUrCrCrCrUrGrUrGrArCrArCrUdTdT / antisense rArGrUrGrUrCrArCrArGrGrGrArCrCrCrArArAdGdT | 50.8
15 | sense rCrArCrUrArCrGrUrUrUrCrUrGrCrUrArUrGrGdTdT / antisense rCrCrArUrArGrCrArGrArArArCrGrUrArGrUrGdTdC | 58
16 | sense rUrCrUrUrUrUrCrCrCrCrUrCrUrGrUrCrUrUrCdTdT / antisense rGrArArGrArCrArGrArGrGrGrGrArArArArGrAdAdA | 35.3
17 | sense rGrArGrArGrCrCrUrUrUrGrUrUrUrUrCrCrUrUdTdT / antisense rArArGrGrArArArArCrArArArGrGrCrUrCrUrCdTdG | 106
18 | sense rArArCrCrUrGrCrCrUrGrArUrGrArGrUrUrUrGdTdT / antisense rCrArArArCrUrCrArUrCrArGrGrCrArGrGrUrUdAdT | 52
19 | sense rArCrCrUrGrArUrArArGrCrArUrUrUrGrArGrGdTdT / antisense rCrCrUrCrArArArUrGrCrUrUrArUrCrArGrGrUdCdT | 46.8
20 | sense rArCrUrArUrCrUrArUrUrArUrArArCrCrUrGrCdTdT / antisense rGrCrArGrGrUrUrArUrArArUrArGrArUrArGrUdGdT | 42.2
21 | sense rArArArCrUrUrCrArArGrGrArArGrArGrGrCrGdTdT / antisense rCrGrCrCrUrCrUrUrCrCrUrUrGrArArGrUrUrUdTdG | 66.3
22 | sense rCrUrArGrGrArCrUrGrArUrGrArCrCrUrGrGrGdTdT / antisense rCrCrCrArGrGrUrCrArUrCrArGrUrCrCrUrArGdCdC | 63.1
23 | sense rArCrCrUrGrArUrArGrCrUrCrCrCrUrGrArArCdTdT / antisense rGrUrUrCrArGrGrGrArGrCrUrArUrCrArGrGrUdCdA | 68.5
24 | sense rArGrUrUrUrCrUrGrCrUrGrCrCrCrGrUrCrArUdTdT / antisense rArUrGrArCrGrGrGrCrArGrCrArGrArArArCrUdGdC | 66.2
25 | sense rUrCrCrCrUrGrArArCrUrUrUrGrGrGrUrCrCrCdTdT / antisense rGrGrGrArCrCrCrArArArGrUrUrCrArGrGrGrAdGdC | 53.3
26 | sense rUrArUrCrCrCrCrArUrArUrArUrUrUrGrArGrGdTdT / antisense rCrCrUrCrArArArUrArUrArUrGrGrGrGrArUrAdCdC | 48.6

Row | Substance | normalised inhibition (eCFP-eYFP dual reporter) [%]
27 | sense rGrArArCrArGrCrGrGrCrGrGrArArGrUrUrUrUdTdT / antisense rArArArArCrUrUrCrCrGrCrCrGrCrUrGrUrUrCdCdA | 84.3
28 | sense rUrCrArUrUrCrCrUrGrGrCrUrUrUrGrGrUrGrUdTdT / antisense rArCrArCrCrArArArGrCrCrArGrGrArArUrGrAdAdC | 52.6
29 | sense rGrGrUrCrArArArArCrCrCrUrUrArCrCrArUrGdTdT / antisense rCrArUrGrGrUrArArGrGrGrUrUrUrUrGrArCrCdTdC | 84.5
30 | sense rGrArGrUrGrUrCrGrUrGrCrArGrArCrArArGrCdTdT / antisense rGrCrUrUrGrUrCrUrGrCrArCrGrArCrArCrUrCdAdG | 64.8
31 | sense rGrGrArGrArUrGrGrCrGrArArGrArUrGrGrCrCdTdT / antisense rGrGrCrCrArUrCrUrUrCrGrCrCrArUrCrUrCrCdTdG | 72.4
32 | sense rArCrGrArCrCrUrCrGrArUrArUrGrArGrUrUrUdTdT / antisense rArArArCrUrCrArUrArUrCrGrArGrGrUrCrGrUdCdA | 70
33 | sense rCrUrArUrCrUrArUrUrArUrArArCrCrUrGrCrCdTdT / antisense rGrGrCrArGrGrUrUrArUrArArUrArGrArUrArGdTdG | 90.4
34 | sense rCrUrArUrUrArUrArArCrCrUrGrCrCrUrGrArUdTdT / antisense rArUrCrArGrGrCrArGrGrUrUrArUrArArUrArGdAdT | 88
35 | sense rArArArArUrArArCrUrUrUrGrArUrUrUrGrGrAdTdT / antisense rUrCrCrArArArUrCrArArArGrUrUrArUrUrUrUdCdC | 69.9
36 | sense rUrGrCrArGrCrUrCrGrUrGrCrGrGrCrGrGrArUdTdT / antisense rArUrCrCrGrCrCrGrCrArCrGrArGrCrUrGrCrAdCdC | 33.7
37 | sense rGrGrGrUrGrArCrCrUrGrArUrArGrCrUrCrCrCdTdT / antisense rGrGrGrArGrCrUrArUrCrArGrGrUrCrArCrCrCdAdA | 87.1
38 | sense rCrArArGrArCrGrCrArGrGrUrArGrArGrGrCrCdTdT / antisense rGrGrCrCrUrCrUrArCrCrUrGrCrGrUrCrUrUrGdAdT | 73.2
39 | sense rGrGrArGrGrArUrUrGrUrArUrUrGrUrUrUrCrUdTdT / antisense rArGrArArArCrArArUrArCrArArUrCrCrUrCrCdGdA | 105
40 | sense rUrGrGrArCrArArUrArUrGrCrUrGrArUrCrCrAdTdT / antisense rUrGrGrArUrCrArGrCrArUrArUrUrGrUrCrCrAdTdC | 91.5
41 | sense rCrCrGrArGrGrArGrGrUrGrGrArGrGrUrGrCrUdTdT / antisense rArGrCrArCrCrUrCrCrArCrCrUrCrCrUrCrGrGdGdC | 58.9
42 | sense rGrUrGrArGrCrCrGrUrCrCrGrCrGrGrUrUrUrCdTdT / antisense rGrArArArCrCrGrCrGrGrArCrGrGrCrUrCrArCdGdA | 72.2
43 | sense rUrArGrArArGrArGrGrArCrUrCrCrArUrGrCrAdTdT / antisense rUrGrCrArUrGrGrArGrUrCrCrUrCrUrUrCrUrAdGdA | 68.6
44 | sense rGrUrGrGrGrArGrArUrGrGrArCrArArUrArUrGdTdT / antisense rCrArUrArUrUrGrUrCrCrArUrCrUrCrCrCrArCdAdG | 79.7
45 | sense rCrCrGrGrGrGrCrArArGrCrUrGrUrGrGrGrArGdTdT / antisense rCrUrCrCrCrArCrArGrCrUrUrGrCrCrCrCrGrGdTdT | 44.9
46 | sense rGrGrCrCrUrUrArCrArCrGrGrCrUrArGrGrArCdTdT / antisense rGrUrCrCrUrArGrCrCrGrUrGrUrArArGrGrCrCdCdA | 60
47 | sense rArCrGrCrArGrUrGrGrArGrCrUrGrGrCrGrGrAdTdT / antisense rUrCrCrGrCrCrArGrCrUrCrCrArCrUrGrCrGrUdCdC | 76.4
48 | sense rArCrUrUrCrArArGrGrArArGrArGrGrCrGrUrCdTdT / antisense rGrArCrGrCrCrUrCrUrUrCrCrUrUrGrArArGrUdTdT | 82.5
49 | sense rArArArUrArArCrUrUrUrGrArUrUrUrGrGrArAdTdT / antisense rUrUrCrCrArArArUrCrArArArGrUrUrArUrUrUdTdC | 70.2
50 | sense rUrGrArUrGrArCrCrUrGrGrGrArGrArArGrGrGdTdT / antisense rCrCrCrUrUrCrUrCrCrCrArGrGrUrCrArUrCrAdGdT | 33.2
51 | sense rUrGrGrArGrGrUrGrCrUrGrGrArGrCrCrGrGrAdTdT / antisense rUrCrCrGrGrCrUrCrCrArGrCrArCrCrUrCrCrAdCdC | 69.1
52 | sense rUrGrUrUrCrGrUrCrUrGrUrArCrArArGrUrUrGdTdT / antisense rCrArArCrUrUrGrUrArCrArGrArCrGrArArCrAdAdG | 84.8
